Among the data in patent US20150045551A1, “FUSED AZOLE DERIVATIVE” (TAISHO PHARMACEUTICAL CO., LTD, priority 2012, published 2015) are IC50 values, retold here.

pIC50: −log10 of the molar value. Counter-ions that a name gives are not always drawn.

Assay [1] deals with T1, Human V1b receptor (Homo sapiens, UniProt P47901).
T1 sequence (P47901 1-424): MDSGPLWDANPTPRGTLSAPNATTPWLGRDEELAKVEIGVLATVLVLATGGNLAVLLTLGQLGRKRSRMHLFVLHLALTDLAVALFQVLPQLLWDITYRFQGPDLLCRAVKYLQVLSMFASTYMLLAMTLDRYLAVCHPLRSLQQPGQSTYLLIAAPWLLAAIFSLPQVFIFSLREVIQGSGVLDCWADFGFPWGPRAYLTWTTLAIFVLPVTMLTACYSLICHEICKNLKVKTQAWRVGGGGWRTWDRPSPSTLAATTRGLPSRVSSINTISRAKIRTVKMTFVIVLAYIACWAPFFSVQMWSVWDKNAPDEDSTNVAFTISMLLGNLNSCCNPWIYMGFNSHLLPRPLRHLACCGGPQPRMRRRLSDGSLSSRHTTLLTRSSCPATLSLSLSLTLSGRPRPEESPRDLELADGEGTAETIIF
The experiment in a line: Binding test for V1b receptor ([3H]AVP displacement, crude membrane preparation). As to conditions: [3H]AVP 0.4 to 1 nmol/L; membranes of 293FT cells transiently expressing human V1b receptor; room temperature, 60 minutes. On the set-up: expressed in transfected cells; host or cells: 293FT cells (transient expression). Here is the method:
Human V1b receptor was transiently expressed in 293FT cells, which were then recovered and homogenated in a 15 mmol/L tris-hydrochloric acid buffer (pH 7.4 and containing 2 mmol/L magnesium chloride, 0.3 mmol/L ethylenediaminetetracetic acid, and 1 mmol/L glycol ether diaminetetraacetic acid). The resulting homogenate was centrifuged at 50,000×g at 4 ° C. for 20 minutes. The precipitate was resuspended in a 75 mmol/L tris-hydrochloric acid buffer (pH 7.4 and containing 12.5 mmol/L magnesium chloride, 0.3 mmol/L ethylenediaminetetracetic acid, 1 mmol/L glycol ether diaminetetraacetic acid, and 250 mmol/L sucrose) to give a crude membrane preparation, which was stored at −80° C. until the binding test was initiated. In the binding test, the crude membrane preparation was diluted with a 50 mmol/L tris-hydrochloric acid buffer (pH 7.4 and containing 10 mmol/L magnesium chloride and 0.1% bovine serum albumin) and mixed with each test compound and [^3H]AVP (final concentration: 0.4 to 1 nmol/L), followed by incubation at room temperature for 60 minutes. The test compound was serially diluted with DMSO so that it would have final concentrations of 0.01 nmol/L to […] at the time of mixing. After the incubation, the mixture was suction filtered through a GF/C filter that was preliminarily impregnated with 0.3% polyethyleneimine. The GF/C filter was dried and after adding a scintillator, the residual radioactivity on the filter was measured using TopCount (PerkinElmer Inc.). The radioactivity in the presence of unlabeled AVP at 10 μmol/L was defined as 0%, and the radioactivity in the absence of unlabeled AVP was defined as 100%. A dose-response curve was plotted from radioactivities in the presence of a test compound at various concentrations, and the 50% inhibitory concentration (IC50 value) of the test compound was calculated.

Assay [2] deals with T1, Human V1b receptor. Nature of the assay: Measurement of V1b receptor antagonistic activity (AVP-induced Fluo-4 fluorescence, FDSS). Format: cell-based. On the set-up: expressed in transfected cells. Particulars: CHO cells stably expressing human V1b receptor; AVP 2.5 nmol/L; 30 minutes preincubation with test compound. The procedure:
CHO cells so modified as to express human V1b receptor in a stable manner were cultured in Ham's F-12 medium (containing 10% FBS and 0.5 mg/mL Geneticin). On the day before the test, seeding was conducted at a density of 20,000 cells/well in a 96-well poly-D-lysine coated black plate. On the day of the test, the culture medium was removed, and a loading solution (1×HBSS, 10 mmol/L HEPES, 0.1% bovine serum albumin, 1.25 mmol/L Probenecid, 0.02% Pluronic F-127, 1.5 μmol/L Fluo-4-AM, pH 7.4) was added to each well, followed by incubation in a CO2 incubator for an hour. After the incubation, the loading solution was removed. A test solution (1×HBSS, 10 mmol/L HEPES, 0.1% bovine serum albumin, 1.25 mmol/L Probenecid, pH 7.4) containing any one of test compounds was added to wells, followed by incubation in a CO2 incubator for 30 minutes. The test compound was serially diluted with DMSO so that it would have final concentrations of 0.1 nmol/L to 1 μmol/L at the time of assaying. After the incubation, fluorescence intensity levels were measured and AVP added by means of FDSS (Hamamatsu Photonics K.K.); AVP was added to give a final concentration of 2.5 nmol/L at the time of assaying. […] The fluorescence level in a well to which neither test compound nor AVP was added was defined as 0%, and the fluorescence level in a well to which only AVP was added and no test compound was added was defined as 100%. A dose-response curve was plotted from fluorescence levels after the addition of AVP in the presence of a test compound at various concentrations, and the 50% inhibitory concentration (IC50 value) of the compound was calculated.

Consider `COc1cc(-c2nc3cc(-c4cc(Cl)cc(CN(C)C)c4)ccc3n2CC(=O)NC(C)C)ccc1F` [Example A-9, 2-[5-{3-chloro-5-[(dimethylamino)methyl]phenyl}-2-(4-fluoro-3-methoxyphenyl)-1H-benzimidazol-1-yl]-N-isopropyl acetamide], for which the pIC50 in assay [1] is 8.59; in assay [2] it was 7.00.

With `COc1cc(-c2nc3cc(OCCCN4CCOCC4)ccc3n2CC(=O)NC(C)C)ccc1F` [Example A-6, 2-{2-(4-fluoro-3-methoxyphenyl)-5-[3-(morpholin-4-yl)propoxy]-1H-benzimidazol-1-yl}-N-isopropyl acetamide], the negative-log IC50 (pIC50) in assay [1] was 7.53; in assay [2] it was 7.59. For `CC(C)NC(=O)Cn1c(-c2ccc(F)c(Cl)c2)nc2cc(OCCCN3CCOCC3)ccc21` [Example A-14, 2-{2-(3-chloro-4-fluorophenyl)-5-[3-(morpholin-4-yl)propoxy]-1H-benzimidazol-1-yl}-N-isopropyl acetamide], in that order: 7.90 and 7.27. For `CC(C)NC(=O)Cn1c(-c2ccc(F)c(Cl)c2)cc2cc(OC3CCN(C4CCCC4)CC3)ccc21` [Example B-17, 2-{2-(3-chloro-4-fluorophenyl)-5-[(1-cyclopentylpiperidin-4-yl)oxy]-1H-indol-1-yl}-N-isopropyl acetamide], in that order: 9.07 and 8.22. As for `CC(C)NC(=O)Cn1c(-c2cccc(Cl)c2)cc2cc(OCCCN3CCCCC3)ccc21` [Example B-1, 2-{2-(3-chlorophenyl)-5-[3-(piperidin-1-yl)propoxy]-1H-indol-1-yl}-N-isopropyl acetamide], the negative-log IC50 (pIC50) is 8.06 in assay [1] and 7.01 in assay [2]. In assay [2], `CC(C)NC(=O)Cn1c(-c2ccc(F)c(Cl)c2)nc2cc(OCCCN3CCCCC3)ccc21` [Example A-11, 2-{2-(3-chloro-4-fluorophenyl)-5-[3-(piperidin-1-yl)propoxy]-1H-benzimidazol-1-yl}-N-isopropyl acetamide] gave a pIC50 of 7.06.

For `CC(C)NC(=O)Cn1c(-c2ccc(F)c(Cl)c2)cc2cc(OCCCN3CCCCC3)ccc21` [Example B-4, 2-{2-(3-chloro-4-fluorophenyl)-5-[3-(piperidin-1-yl)propoxy]-1H-indol-1-yl}-N-isopropyl acetamide], the pIC50 in assay [1] was 8.31; in assay [2], 7.66.

Turning to `CC(C)NC(=O)Cn1c(-c2cccc(Cl)c2)cc2cc(OCCCN3CCCCC3)cnc21` [Example B-21, 2-{2-(3-chlorophenyl)-5-[3-(piperidin-1-yl)propoxy]-1H-pyrrolo[2,3-b]pyridin-1-yl}-N-isopropyl acetamide], the pIC50 is 7.67 in assay [1] and 7.29 in assay [2]. The like results for `CC(C)NC(=O)Cn1c(-c2cccc(Cl)c2)cc2cc(OCCCN3CC4(COC4)C3)ccc21` [Example B-9, 2-{2-(3-chlorophenyl)-5-[3-(2-oxa-6-azaspiro[3.3]hept-6-yl)propoxy]-1H-indol-1-yl}-N-isopropyl acetamide] were, in that order, 8.28 and 7.67. For `COc1cc(-c2nc3cc(OCCCN4CCCCC4)ccc3n2CC(=O)NC(C)C)ccc1F` [Example A-5, 2-{2-(4-fluoro-3-methoxyphenyl)-5-[3-(piperidin-1-yl)propoxy]-1H-benzimidazol-1-yl}-N-isopropyl acetamide], in that order: 7.36 and 6.91. The like results for `CC(C)NC(=O)Cn1c(-c2ccc(F)c(Cl)c2)nc2cc(OCCCN3CCCCCC3)ccc21` [Example A-13, 2-{5-[3-(azepan-1-yl)propoxy]-2-(3-chloro-4-fluorophenyl)-1H-benzimidazol-1-yl}-N-isopropyl acetamide] were, in that order, 7.48 and 7.20. In assay [1], `CC(C)NC(=O)Cn1c(-c2cccc(Cl)c2)nc2cc(OCCCN3[C@@H]4CC[C@H]3COC4)ccc21` [Example A-4, 2-[2-(3-chlorophenyl)-5-{3-[(1R,5S)-3-oxa-8-azabicyclo[3.2.1]oct-8-yl]propoxy}-1H-benzimidazol-1-yl]-N-isopropyl acetamide] gave a pIC50 of 8.30.

In the case of `CC(C)NC(=O)Cn1c(-c2cccc(Cl)c2)nc2cc(OCCCN3CCOCC3)ccc21` [Example A-2, 2-{2-(3-chlorophenyl)-5-[3-(morpholin-4-yl)propoxy]-1H-benzimidazol-1-yl}-N-isopropyl acetamide], in assay [1], the pIC50 is 7.85.

In the case of `CC(C)NC(=O)Cn1c(-c2cccc(Cl)c2)cc2cc(OCCCN3CCOCC3)ccc21` [Example B-2, 2-{2-(3-chlorophenyl)-5-[3-(morpholin-4-yl)propoxy]-1H-indol-1-yl}-N-isopropyl acetamide], the negative-log IC50 (pIC50) in assay [1] was 8.19. Still for that read-out and setting: with `COc1cc(-c2cc3cc(OCCCN4CCC(O)C4)ccc3n2CC(=O)NC(C)C)ccc1F` (stereo not shown) [Example B-14, 2-{2-(4-fluoro-3-methoxyphenyl)-5-[3-(3-hydroxypyrrolidin-1-yl)propoxy]-1H-indol-1-yl}-N-isopropyl acetamide] the figure was 7.06; with `CC(C)NC(=O)Cn1c(-c2cccc(Cl)c2)cc2cc(OC3CCN(C4CC4)CC3)ccc21` [Example B-3, 2-{2-(3-chlorophenyl)-5-[(1-cyclopropylpiperidin-4-yl)oxy]-1H-indol-1-yl}-N-isopropyl acetamide], 7.98; with `COc1cc(-c2nc3cc(N4CCCN(C)CC4)ccc3n2CC(=O)NC(C)(C)C)ccc1F` [Example A-19, N-tert-butyl-2-[2-(4-fluoro-3-methoxyphenyl)-5-(4-methyl-1,4-diazepan-1-yl)-1H-benzimidazol-1-yl]acetamide], 8.47. On the same count and under the same terms, then `COc1cc(-c2nc3ccc(-c4cc(Cl)cc(CN(C)C)c4)cc3n2CC(=O)NC(C)C)ccc1F` [Example A-10, 2-[6-{3-chloro-5-[(dimethylamino)methyl]phenyl}-2-(4-fluoro-3-methoxyphenyl)-1H-benzimidazol-1-yl]-N-isopropyl acetamide], with 6.85; and `COc1cc(-c2nc3cc(N4CCC(N5CCCC5)CC4)ccc3n2CC(=O)NC(C)(C)C)ccc1F` [Example A-21, N-tert-butyl-2-{2-(4-fluoro-3-methoxyphenyl)-5-[4-(pyrrolidin-1-yl)piperidin-1-yl]-1H-benzimidazol-1-yl}acetamide], with 8.96. Still for that read-out and setting: with `CC(C)NC(=O)Cn1c(-c2ccc(F)c(Cl)c2)nc2cc(OCCCN3[C@@H]4CC[C@H]3COC4)ccc21` [Example A-16, 2-[2-(3-chloro-4-fluorophenyl)-5-{3-[(1R,5S)-3-oxa-8-azabicyclo[3.2.1]oct-8-yl]propoxy}-1H-benzimidazol-1-yl]-N-isopropyl acetamide] the figure was 8.77. Turning to `CC(C)NC(=O)Cn1c(-c2ccc(F)c(Cl)c2)nc2cc(OCCCN3CCCCC3)ccc21` [Example A-12, 2-{2-(3-chloro-4-fluorophenyl)-5-[3-(piperidin-1-yl)propoxy]-1H-benzimidazol-1-yl}-N-isopropyl acetamide hydrochloride], the pIC50 in assay [1] is 8.12.

As usually defined, the pIC50 is the IC50 on a negative log10 scale, so that one unit is a factor of ten.
